Data from ChEMBL document CHEMBL1154528, “Discovery of a novel series of quinoxalines as inhibitors of c-Met kinase” (Bioorg Med Chem Lett, 2009).

How the values were obtained:
[1] = Inhibition of Flt at 10 uM; set-up: scale not given: the % may be the effect or the level left
[2] = biological target: Vascular endothelial growth factor receptor 2 (Homo sapiens) (UniProt P35968); test: Inhibition of KDR at 10 uM; set-up: scale not given: the % may be the effect or the level left
Vascular endothelial growth factor receptor 2 (Homo sapiens), sequence (P35968 whole entry): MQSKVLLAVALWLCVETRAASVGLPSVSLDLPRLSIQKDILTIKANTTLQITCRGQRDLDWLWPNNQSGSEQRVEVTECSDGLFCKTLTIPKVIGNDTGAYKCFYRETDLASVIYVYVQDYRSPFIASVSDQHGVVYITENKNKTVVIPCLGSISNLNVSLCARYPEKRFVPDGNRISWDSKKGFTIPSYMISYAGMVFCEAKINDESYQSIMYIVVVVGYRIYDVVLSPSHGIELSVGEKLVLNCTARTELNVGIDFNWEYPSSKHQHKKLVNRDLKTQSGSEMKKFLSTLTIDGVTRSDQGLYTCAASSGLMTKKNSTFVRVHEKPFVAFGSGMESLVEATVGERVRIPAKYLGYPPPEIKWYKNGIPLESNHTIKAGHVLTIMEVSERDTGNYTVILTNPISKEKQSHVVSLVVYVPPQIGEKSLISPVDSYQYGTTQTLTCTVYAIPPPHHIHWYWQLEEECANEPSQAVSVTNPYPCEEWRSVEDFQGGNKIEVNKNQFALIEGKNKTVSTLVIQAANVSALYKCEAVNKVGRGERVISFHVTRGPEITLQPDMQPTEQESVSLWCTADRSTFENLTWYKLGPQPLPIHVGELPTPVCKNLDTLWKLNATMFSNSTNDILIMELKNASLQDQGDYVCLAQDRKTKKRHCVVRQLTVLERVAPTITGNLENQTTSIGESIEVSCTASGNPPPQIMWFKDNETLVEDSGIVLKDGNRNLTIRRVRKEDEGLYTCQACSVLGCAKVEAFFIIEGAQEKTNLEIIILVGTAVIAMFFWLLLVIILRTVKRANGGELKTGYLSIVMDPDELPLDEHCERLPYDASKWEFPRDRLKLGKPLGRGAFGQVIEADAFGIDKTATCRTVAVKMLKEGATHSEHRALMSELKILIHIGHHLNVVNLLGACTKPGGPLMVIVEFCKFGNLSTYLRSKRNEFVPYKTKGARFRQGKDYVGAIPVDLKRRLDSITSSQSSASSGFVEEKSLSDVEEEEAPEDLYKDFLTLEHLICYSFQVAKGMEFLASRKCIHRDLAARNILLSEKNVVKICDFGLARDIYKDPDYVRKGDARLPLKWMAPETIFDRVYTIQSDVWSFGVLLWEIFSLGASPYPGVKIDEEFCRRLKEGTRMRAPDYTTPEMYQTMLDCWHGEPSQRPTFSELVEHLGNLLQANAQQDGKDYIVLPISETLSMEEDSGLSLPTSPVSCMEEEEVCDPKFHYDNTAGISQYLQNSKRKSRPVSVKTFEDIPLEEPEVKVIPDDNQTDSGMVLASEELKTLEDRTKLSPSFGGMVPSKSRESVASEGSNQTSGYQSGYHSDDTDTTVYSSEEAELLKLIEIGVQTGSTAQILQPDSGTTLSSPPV

Compound: CN1CCN(c2cnc3cc(C(F)(F)F)cc(-c4ccccc4)c3n2)CC1
- Activity [1]: < 30%
- Activity [2]: < 30%
